target: T1, ALK2 (Homo sapiens, UniProt Q04771); assay: LanthaScreen Eu Kinase Binding Assay, ALK2 inhibition; conditions: 1 micromolar concentration
T1 construct: purchased ThermoFisher Scientific (Life Technologies)
T1 sequence (Q04771 21-509): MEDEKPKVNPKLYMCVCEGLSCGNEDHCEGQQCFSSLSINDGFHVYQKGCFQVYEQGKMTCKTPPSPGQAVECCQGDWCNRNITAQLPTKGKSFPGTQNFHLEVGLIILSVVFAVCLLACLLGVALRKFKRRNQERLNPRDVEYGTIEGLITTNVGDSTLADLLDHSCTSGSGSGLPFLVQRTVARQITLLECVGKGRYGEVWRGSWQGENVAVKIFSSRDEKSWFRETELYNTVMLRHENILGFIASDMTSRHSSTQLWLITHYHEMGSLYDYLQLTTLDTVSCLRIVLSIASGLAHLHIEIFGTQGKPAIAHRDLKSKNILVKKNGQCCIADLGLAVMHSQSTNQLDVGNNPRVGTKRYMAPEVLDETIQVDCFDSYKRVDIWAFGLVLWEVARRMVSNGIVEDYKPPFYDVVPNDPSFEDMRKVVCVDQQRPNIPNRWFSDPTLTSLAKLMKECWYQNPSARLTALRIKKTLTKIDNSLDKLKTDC
Procedure: Biochemical assays to measure the inhibitory effects of the compounds were performed by ThermoFisher Scientific (Life Technologies). ALK2 inhibition was tested using LanthaScreen™ Eu Kinase Binding Assay screening protocol.

Row | inhibition at 1 µM [%] | Structure (SMILES)
1 | > 50 | COc1cc(-n2cnc(Nc3nc(C(C)C)nc4ccccc34)c2)cc(OC)c1OC [Compound 73a, 2-isopropyl-N-(1-(3,4,5-trimethoxyphenyl)-1H-imidazol-4-yl)quinazolin-4-amine]
2 | > 50 | COc1ccc2c(Nc3cn(-c4cc(OC)c(OC)c(OC)c4)cn3)nc(C(C)C)nc2c1 [Compound 75a, 2-isopropyl-7-methoxy-N-(1-(3,4,5-trimethoxyphenyl)-1H-imidazol-4-yl)quinazolin-4-amine]
3 | > 50 | C=C(C)c1nc(Nc2cn(-c3cc(OC)c(OC)c(OC)c3)cn2)c2ncccc2n1 [Compound 78c, 2-(prop-1-en-2-yl)-N-(1-(3,4,5-trimethoxyphenyl)-1H-imidazol-4-yl)pyrido[3,2-d]pyrimidin-4-amine]
4 | < 50 | COc1cc2nc(C(C)C)nc(Nc3cn(-c4cc(OC)c(OC)c(OC)c4)cn3)c2cc1OC [Compound 79a, 2-isopropyl-6,7-dimethoxy-N-(1-(3,4,5-trimethoxyphenyl)-1H-imidazol-4-yl)quinazolin-4-amine]
5 | > 50 | COc1cc(-n2cnc(Nc3nc(C(C)C)nc4sccc34)c2)cc(OC)c1OC [Compound 81a, 2-isopropyl-N-(1-(3,4,5-trimethoxyphenyl)-1H-imidazol-4-yl)thieno[2,3-d]pyrimidin-4-amine]
6 | > 50 | C=C(C)c1nc(Nc2cn(-c3cc(OC)c(OC)c(OC)c3)cn2)c2cccnc2n1 [Compound 82c, 2-(prop-1-en-2-yl)-N-(1-(3,4,5-trimethoxyphenyl)-1H-imidazol-4-yl)pyrido[2,3-d]pyrimidin-4-amine]
7 | > 50 | COc1cc(-n2cnc(Nc3nc(C(C)C)nc4cccnc34)c2)cc(OC)c1OC [Compound 83a, 2-isopropyl-N-(1-(3,4,5-trimethoxyphenyl)-1H-imidazol-4-yl)pyrido[3,2-d]pyrimidin-4-amine]
8 | > 50 | COc1cc(-n2cnc(Nc3nc(C(C)C)nc4cc(C)sc34)c2)cc(OC)c1OC [Compound 85a, 2-isopropyl-6-methyl-N-(1-(3,4,5-trimethoxyphenyl)-1H-imidazol-4-yl)thieno[3,2-d]pyrimidin-4-amine]
9 | > 50 | COc1cc(-n2cnc(Nc3nc(C(C)C)nc4c3CCNC4)c2)cc(OC)c1OC [Compound 86a, 2-isopropyl-N-(1-(3,4,5-trimethoxyphenyl)-1H-imidazol-4-yl)-5,6,7,8-tetrahydropyrido[3,4-d]pyrimidin-4-amine]
10 | > 50 | COc1cc(-n2cnc(Nc3nc(C(C)C)nc4scnc34)c2)cc(OC)c1OC [Compound 93a, 5-isopropyl-N-(1-(3,4,5-trimethoxyphenyl)-1H-imidazol-4-yl)thiazolo[5,4-d]pyrimidin-7-amine]
11 | > 50 | COc1cc(-n2cnc(Nc3nc(C(C)C)nc4c3ncn4C(C)C)c2)cc(OC)c1OC [Compound 94a, 2,9-diisopropyl-N-(1-(3,4,5-trimethoxyphenyl)-1H-imidazol-4-yl)-9H-purin-6-amine]
12 | > 50 | COc1cc(-n2cnc(Nc3nc(C(C)C)nc4c(C)csc34)c2)cc(OC)c1OC [Compound 96a, 2-isopropyl-7-methyl-N-(1-(3,4,5-trimethoxyphenyl)-1H-imidazol-4-yl)thieno[3,2-d]pyrimidin-4-amine]
13 | > 50 | COc1cc(-n2cnc(Nc3nc(C(C)C)nc4c3ccn4C(C)C)c2)cc(OC)c1OC [Compound 98a, 2,7-diisopropyl-N-(1-(3,4,5-trimethoxyphenyl)-1H-imidazol-4-yl)-7H-pyrrolo[2,3-d]pyrimidin-4-amine]
14 | > 50 | COc1cc(-n2cnc(Nc3nc(C(C)C)nc4ccc(F)cc34)c2)cc(OC)c1OC [Compound 99a, 6-fluoro-2-isopropyl-N-(1-(3,4,5-trimethoxyphenyl)-1H-imidazol-4-yl)quinazolin-4-amine]
15 | > 50 | COc1cc(-n2cnc(Nc3nc(C(C)C)nc4ncccc34)c2)cc(OC)c1OC [Compound 102e, 2-isopropyl-N-(1-(3,4,5-trimethoxyphenyl)-1H-imidazol-4-yl)pyrido[2,3-d]pyrimidin-4-amine]

More lines, now with the values behind:

Row | Structure (SMILES) | inhibition at 1 µM [%]
16 | C=C(C)c1nc(Nc2cn(-c3cc(OC)c(OC)c(OC)c3)cn2)c2ncn(C(C)C)c2n1 [Compound 74c, 9-isopropyl-2-(prop-1-en-2-yl)-N-(1-(3,4,5-trimethoxyphenyl)-1H-imidazol-4-yl)-9H-purin-6-amine] | > 50
17 | C=C(C)c1nc2c(c(Nc3cn(-c4cc(OC)c(OC)c(OC)c4)cn3)n1)CCN(C(=O)OC(C)(C)C)C2 [Compound 76c, tert-butyl 2-(prop-1-en-2-yl)-4-((1-(3,4,5-trimethoxyphenyl)-1H-imidazol-4-yl)amino)-5,6-dihydropyrido[3,4-d]pyrimidine-7 (8H)-carboxylate] | < 50
18 | COc1cc(-n2cnc(Nc3nc(C(C)C)nc4c3CCN(C(=O)OC(C)(C)C)C4)c2)cc(OC)c1OC [Compound 77a, tert-butyl 2-isopropyl-4-((1-(3,4,5-trimethoxyphenyl)-1H-imidazol-4-yl)amino)-5,6-dihydropyrido[3,4-d]pyrimidine-7 (8H)-carboxylate] | > 50
19 | C=C(C)c1nc(Nc2cn(-c3cc(OC)c(OC)c(OC)c3)cn2)c2ccsc2n1 [Compound 80c, 2-(prop-1-en-2-yl)-N-(1-(3,4,5-trimethoxyphenyl)-1H-imidazol-4-yl)thieno[2,3-d]pyrimidin-4-amine] | > 50
20 | C=C(C)c1nc(Nc2cn(-c3cc(OC)c(OC)c(OC)c3)cn2)c2sc(C)cc2n1 [Compound 84c, 6-methyl-2-(prop-1-en-2-yl)-N-(1-(3,4,5-trimethoxyphenyl)-1H-imidazol-4-yl)thieno[3,2-d]pyrimidin-4-amine] | > 50
21 | COc1cc2nc(Nc3cn(-c4cc(OC)c(OC)c(OC)c4)cn3)nc(C(C)C)c2cc1OC [Compound 87a, 4-isopropyl-6,7-dimethoxy-N-(1-(3,4,5-trimethoxyphenyl)-1H-imidazol-4-yl)quinazolin-2-amine] | > 50
22 | C=C(C)c1nc2c(c(Nc3cn(-c4cc(OC)c(OC)c(OC)c4)cn3)n1)CCCC2 [Compound 88c, 2-(prop-1-en-2-yl)-N-(1-(3,4,5-trimethoxyphenyl)-1H-imidazol-4-yl)-5,6,7,8-tetrahydroquinazolin-4-amine] | > 50
23 | COc1cc(-n2cnc(Nc3nc(C(C)C)nc4c3CCCC4)c2)cc(OC)c1OC [Compound 89a, 2-isopropyl-N-(1-(3,4,5-trimethoxyphenyl)-1H-imidazol-4-yl)-5,6,7,8-tetrahydroquinazolin-4-amine] | > 50
24 | C=C(C)c1nc(Nc2cn(-c3cc(OC)c(OC)c(OC)c3)cn2)nc2sccc12 [Compound 90b, 4-(prop-1-en-2-yl)-N-(1-(3,4,5-trimethoxyphenyl)-1H-imidazol-4-yl)thieno[2,3-d]pyrimidin-2-amine] | > 50
25 | COc1cc(-n2cnc(Nc3nc(C(C)C)c4ccsc4n3)c2)cc(OC)c1OC [Compound 91a, 4-isopropyl-N-(1-(3,4,5-trimethoxyphenyl)-1H-imidazol-4-yl)thieno[2,3-d]pyrimidin-2-amine] | > 50
26 | C=C(C)c1nc(Nc2cn(-c3cc(OC)c(OC)c(OC)c3)cn2)c2scc(C)c2n1 [Compound 92c, 7-methyl-2-(prop-1-en-2-yl)-N-(1-(3,4,5-trimethoxyphenyl)-1H-imidazol-4-yl)thieno[3,2-d]pyrimidin-4-amine] | > 50
27 | C=C(C)c1nc(Nc2cn(-c3cc(OC)c(OC)c(OC)c3)cn2)c2cc(F)ccc2n1 [Compound 95c, 6-fluoro-2-(prop-1-en-2-yl)-N-(1-(3,4,5-trimethoxyphenyl)-1H-imidazol-4-yl)quinazolin-4-amine] | > 50
28 | C=C(C)c1nc(Nc2cn(-c3cc(OC)c(OC)c(OC)c3)cn2)c2ccn(C(C)C)c2n1 [Compound 97c, 7-isopropyl-2-(prop-1-en-2-yl)-N-(1-(3,4,5-trimethoxyphenyl)-1H-imidazol-4-yl)-7H-pyrrolo[2,3-d]pyrimidin-4-amine] | > 50
29 | COc1cc(-n2cnc(Nc3nc(C(C)CCN(C)C)nc4c3cnn4C(C)C)c2)cc(OC)c1OC (centres unmarked) [Compound 100b, 6-(4-(dimethylamino)butan-2-yl)-1-isopropyl-N-(1-(3,4,5-trimethoxyphenyl)-1H-imidazol-4-yl)-1H-pyrazolo[3,4-d]pyrimidin-4-amine] | > 50
30 | COc1cc(-n2cnc(Nc3nc(C4CCN(C)C4)nc4c3cnn4C(C)C)c2)cc(OC)c1OC (centres unmarked) [Compound 101b, 1-isopropyl-6-(1-methylpyrrolidin-3-yl)-N-(1-(3,4,5-trimethoxyphenyl)-1H-imidazol-4-yl)-1H-pyrazolo[3,4-d]pyrimidin-4-amine] | > 50
31 | CCOC(=O)CC(C)c1nc(Nc2cn(-c3cc(OC)c(OC)c(OC)c3)cn2)c2cnn(C(C)C)c2n1 (centres unmarked) [Compound 103c, ethyl 3-(1-isopropyl-4-((1-(3,4,5-trimethoxyphenyl)-1H-imidazol-4-yl)amino)-1H-pyrazolo[3,4-d]pyrimidin-6-yl)butanoate] | > 50
32 | C=Cc1nc(Nc2cn(-c3cc(OC)c(OC)c(OC)c3)cn2)c2cnn(C(C)C)c2n1 [Compound 104a, 1-isopropyl-N-(1-(3,4,5-trimethoxyphenyl)-1H-imidazol-4-yl)-6-vinyl-1H-pyrazolo[3,4-d]pyrimidin-4-amine] | > 50

Source: patent publication US20240270750A1, “IMIDAZOLE-CONTAINING INHIBITORS OF ALK2 KINASE” (BioCryst Pharmaceuticals, Inc., priority 2021, published 2024)
